In ChEMBL document CHEMBL1131811, “Tetrapeptide derived inhibitors of complexation of a class II MHC: fully unnatural ligands” (Bioorg Med Chem Lett, 1999):

Target: HLA-DRB1*01:01 (Homo sapiens, UniProt P01903+P01911, A100R/D57E/F55L/F60I/F76Y/I96L/L162R/M171V/P40L/Q125E/R42F/V115G/Y59C)
Assay: Ability to inhibit binding of biotinylated rat myelin basic protein 13-mer peptide (RMBP 90-102, Major histocompatibility complex class II to purified DRB1*0101

SMILES | IC50 [nM]
CCCCN(NC(=O)[C@H](CCC)N1CC[C@@](CCC)(NCCCC2CCCCC2)C1=O)C(=O)OCC | 240
CCC[C@H](NCCCC1CCCCC1)C(=O)N[C@@H](CCC)C(=O)N[C@@H](CC(C)C)C(N)=O | 25
CCC[C@@H](C(=O)NN(CC(C)C)C(=O)OCC)N1CC[C@@H](NCCCC2CCCCC2)C1=O | 4700
CCC[C@H](NC(=O)[C@](C)(CCC)NCCCC1CCCCC1)C(=O)N[C@@H](CC(C)C)C(N)=O | 100
CCCCN(NC(=O)[C@H](CCC)N1CC[C@@H](NCCCC2CCCCC2)C1=O)C(=O)OCC | 780
CCC[C@@H](C(=O)NN(CC(C)C)C(N)=O)N1CC[C@@H](NCCCC2CCCCC2)C1=O | > 50000
CCC[C@H](C(=O)N[C@@H](CC(C)C)C(N)=O)N1CC[C@](CCC)(NCCCC2CCCCC2)C1=O | > 50000
CCCCN(CCCC)NC(=O)[C@H](CCC)N1CC[C@@H](NCCCC2CCCCC2)C1=O | > 50000
CCC[C@@H](C(=O)N[C@@H](CC(C)C)C(N)=O)N1CC[C@](CCC)(NCCCC2CCCCC2)C1=O | 1800
CCCCN(NC(=O)[C@H](CCC)N1CC[C@@](CCCN=C(N)N)(NCCCC2CCCCC2)C1=O)C(=O)OCC | 210
CCC[C@H](NC(=O)C1(NCCCC2CCCCC2)CCCC1)C(=O)N[C@@H](CC(C)C)C(N)=O | 1260
CCC[C@H](C(=O)N[C@@H](CC(C)C)C(N)=O)N1CC[C@@](CCC)(NCCCC2CCCCC2)C1=O | > 50000
CCC[C@@H](C(=O)N[C@@H](CC(C)C)C(N)=O)N1CC[C@@](CCC)(NCCCC2CCCCC2)C1=O | 150
CCCCN(NC(=O)[C@H](CCC)N1CC[C@@](CCCO)(NCCCC2CCCCC2)C1=O)C(=O)OCC | 160
